Measurements: patent US9216183B2, “Topical treatment for chemotherapy induced eyelash loss or hypotrichosis using prostamide F2 alpha agonists” (ALLERGAN, INC., priority 2002, dated 2015)
Values joined by “and” are separate entries in the source; they are usually repeats but may differ in a detail not shown here. Equal values may be shown once.

System: eyelashes of subjects with idiopathic hypotrichosis
Assay: GEA / ESQ Domain 2 responder analysis, 1-year clinical study, idiopathic hypotrichosis
Assay type: in vivo, human
From the text: A one-year, multicenter, randomized, double-masked, vehicle-controlled study. Adult post-chemotherapy and idiopathic eyelash hypotrichosis subjects were enrolled based on their score of 1 or 2 on a four point ordinal Global Eyelash Assessment (GEA) scale, and in addition having a low score on a PRO measure associated with 'psychological impact' of the condition, a domain-2 of the Eyelash Satisfaction Questionnaire (ESQ). The study involved two treatment periods of six months each. In the first treatment period, subjects for both populations were randomized 3:1 for QD bimatoprost: vehicle treatment. In the second 6-month treatment period, all subjects were moved to bimatoprost treatment, except for a group of bimatoprost treated idiopathic hypotrichosis subjects (n=55) who were switched to vehicle to investigate the effect of drug discontinuation. The study included 9 visits over the 12-month treatment period. The primary end point was the proportion of responders within each treatment group based on a composite measure of GEA and ESQ Domain-2 (investigator assessed eyelash prominence and subject's assessment of 'psychological impact' related to eyelashes) at month-4. This multicenter, double-masked, randomized, parallel-group study included two 6-month treatment periods. Subjects with idiopathic hypotrichosis were randomized to 3 treatment groups: 1) treatment period 1 (TP1) and TP2: bimatoprost; 2) TP1: bimatoprost; TP2: vehicle; and 3) TP1: vehicle; TP2: bimatoprost. Subjects with chemotherapy-induced hypotrichosis were randomized to 2 treatment groups: 1) TP1: bimatoprost or vehicle; and 2) TP2: bimatoprost. The primary endpoint was a composite of at least a 1-grade improvement in investigator-assessed Global Eyelash Assessment (GEA), and at least a 3-point improvement in subject-reported Eyelash Satisfaction Questionnaire (ESQ) Domain 2 (self-perceived confidence, attractiveness, and professionalism) at month 4. Secondary measures included digitally assessed eyelash characteristics (i.e., eyelash length, fullness, and darkness). Idiopathic hypotrichosis subjects were randomized to 3 treatment arms in a 2:1:1 ratio: bimatoprost during both treatment periods; vehicle in TP1 and bimatoprost in TP2; and bimatoprost in TP1 and vehicle in TP2. Chemotherapy-induced hypotrichosis subjects were randomized in a 3:1 ratio to receive bimatoprost during both treatment periods or vehicle in TP1 followed by bimatoprost in TP2. Male or female subjects at least 18 years of age who met these criteria were eligible for inclusion in the study: a score of 1 or 2 on the clinician-graded global eyelash assessment (“GEA”); a score of 1 (very much disagree) or 2 (disagree) on each of 3 items (16 [confidence], 19 [attractiveness], and 18 [professionalism]) on the subject-assessed eyelash satisfaction questionnaire (“esq”); best-corrected visual acuity (“bcva”) score equivalent to a […] acuity of 20/100 or better in each eye; and intraocular pressure (“iop”) 20 mm hg or less in each eye. Subjects in the chemotherapy-induced hypotrichosis population also met the following inclusion criteria: inadequate eyelashes after completing chemotherapy; treatment for solid tumor type stage 1, 2, or 3a cancer; last chemotherapy treatment at least 4 to less than 16 weeks prior to baseline; and considered free of cancer. Key exclusion criteria included subjects with any eye disease or abnormality or a history of eye surgery. Subjects placed 1 drop of study treatment (i.e., bimatoprost 0.03% or vehicle) onto a sterile single-use-per eye applicator and applied it to the upper eyelid margin of 1 eye; a second applicator was used for the contralateral eye. Treatment was applied once daily in the evening throughout the study. […]

[1] = Bim/Veh group (n = 60), Month 1 (on bimatoprost)
[2] = Bim/Veh group (n = 60), Month 2 (on bimatoprost)
[3] = Bim/Veh group (n = 60), Month 4 (on bimatoprost)
[4] = Bim/Veh group (n = 60), Month 6 (on bimatoprost)
[5] = Bim/Veh group (n = 60), Month 7 (vehicle since month 6)
[6] = Bim/Veh group (n = 60), Month 8 (vehicle since month 6)
[7] = Bim/Veh group (n = 60), Month 10 (vehicle since month 6)
[8] = Bim/Veh group (n = 60), Month 12 (vehicle since month 6)
[9] = Month 4, all bimatoprost TP1 (n = 179)
[10] = Month 6, all bimatoprost TP1 (n = 179)

SMILES: CCNC(=O)CCC/C=C\C[C@@H]1[C@@H](/C=C/[C@@H](O)CCc2ccccc2)[C@H](O)C[C@@H]1O [Bim 0.03%, bimatoprost]
- Primary composite endpoint responders (≧1-grade GEA and ≧3-point ESQ Domain 2 improvement) [1]: 0.0%
- ≧1-Grade Improvement From Baseline GEA Score [1]: 10.0%
- ≧2-Grade Improvement From Baseline GEA Score [1]: 0.0%
- ≧3-Point Improvement From Baseline ESQ Domain 2 Score [1]: 13.3%
- Primary composite endpoint responders (≧1-grade GEA and ≧3-point ESQ Domain 2 improvement) [2]: 13.3%
- ≧1-Grade Improvement From Baseline GEA Score [2]: 40.0%
- ≧2-Grade Improvement From Baseline GEA Score [2]: 3.3%
- ≧3-Point Improvement From Baseline ESQ Domain 2 Score [2]: 25.0%
- Primary composite endpoint responders (≧1-grade GEA and ≧3-point ESQ Domain 2 improvement) [3]: 41.7%
- ≧1-Grade Improvement From Baseline GEA Score [3]: 71.7%
- ≧2-Grade Improvement From Baseline GEA Score [3]: 25.0%
- ≧3-Point Improvement From Baseline ESQ Domain 2 Score [3]: 48.3%
- Primary composite endpoint responders (≧1-grade GEA and ≧3-point ESQ Domain 2 improvement) [4]: 48.3%
- ≧1-Grade Improvement From Baseline GEA Score [4]: 76.7%
- ≧2-Grade Improvement From Baseline GEA Score [4]: 30.0%
- ≧3-Point Improvement From Baseline ESQ Domain 2 Score [4]: 56.7%
- Primary composite endpoint responders (≧1-grade GEA and ≧3-point ESQ Domain 2 improvement) [5]: 51.7%
- ≧1-Grade Improvement From Baseline GEA Score [5]: 78.3%
- ≧2-Grade Improvement From Baseline GEA Score [5]: 30.0%
- ≧3-Point Improvement From Baseline ESQ Domain 2 Score [5]: 56.7%
- Primary composite endpoint responders (≧1-grade GEA and ≧3-point ESQ Domain 2 improvement) [6]: 50.0%
- ≧1-Grade Improvement From Baseline GEA Score [6]: 78.3%
- ≧2-Grade Improvement From Baseline GEA Score [6]: 28.3%
- ≧3-Point Improvement From Baseline ESQ Domain 2 Score [6]: 55.0%
- Primary composite endpoint responders (≧1-grade GEA and ≧3-point ESQ Domain 2 improvement) [7]: 20.0%
- ≧1-Grade Improvement From Baseline GEA Score [7]: 46.7%
- ≧2-Grade Improvement From Baseline GEA Score [7]: 8.3%
- ≧3-Point Improvement From Baseline ESQ Domain 2 Score [7]: 43.3%
- Primary composite endpoint responders (≧1-grade GEA and ≧3-point ESQ Domain 2 improvement) [8]: 11.7%
- ≧1-Grade Improvement From Baseline GEA Score [8]: 35.0%
- ≧2-Grade Improvement From Baseline GEA Score [8]: 5.0%
- ≧3-Point Improvement From Baseline ESQ Domain 2 Score [8]: 38.3%
- Primary composite endpoint responders (≧1-grade GEA and ≧3-point ESQ Domain 2 improvement) [9]: 40.2%
- Responders with ≧1-grade increase in GEA score [9]: 74.3%
- Responders with ≧2-grade increase in GEA score [9]: 25.7%
- Responders with ≧3-point increase in ESQ Domain 2 [9]: 47.5%
- Responders with ≧1-grade increase in GEA score (Month 4, all bimatoprost TP1 (n = 179), listed as Bimatoprost): 74.3%
- Responders with ≧1-grade increase in GEA score (Month 4, all bimatoprost TP1 (n = 179), listed as bimatoprost): 74.3% and > 70%
- Primary composite endpoint responders (≧1-grade GEA and ≧3-point ESQ Domain 2 improvement) [10]: 47.5%
- Responders with ≧1-grade increase in GEA score [10]: 77.7%
- Responders with ≧2-grade increase in GEA score [10]: 30.7%
- Responders with ≧3-point increase in ESQ Domain 2 [10]: 55.9%
- Time efficacy was maintained after drug discontinuation (bimatoprost 6 months then vehicle): about 2 months
